These results are taken from paper PMC11880180, “Theranostic Near-Infrared Monoamine Oxidase Inhibitor (NMI) Protein Binding Interactions with MAOA and Albumin” (Pharmaceutical Research, 2025).

Usually IC50 stands for the concentration that gives 50% inhibition.

The test addresses T1, MAOA (monoamine oxidase A) (Homo sapiens, UniProt P21397).
T1 construct: recombinant human MAOA (M7316-1VL)
T1 sequence (P21397 1-527): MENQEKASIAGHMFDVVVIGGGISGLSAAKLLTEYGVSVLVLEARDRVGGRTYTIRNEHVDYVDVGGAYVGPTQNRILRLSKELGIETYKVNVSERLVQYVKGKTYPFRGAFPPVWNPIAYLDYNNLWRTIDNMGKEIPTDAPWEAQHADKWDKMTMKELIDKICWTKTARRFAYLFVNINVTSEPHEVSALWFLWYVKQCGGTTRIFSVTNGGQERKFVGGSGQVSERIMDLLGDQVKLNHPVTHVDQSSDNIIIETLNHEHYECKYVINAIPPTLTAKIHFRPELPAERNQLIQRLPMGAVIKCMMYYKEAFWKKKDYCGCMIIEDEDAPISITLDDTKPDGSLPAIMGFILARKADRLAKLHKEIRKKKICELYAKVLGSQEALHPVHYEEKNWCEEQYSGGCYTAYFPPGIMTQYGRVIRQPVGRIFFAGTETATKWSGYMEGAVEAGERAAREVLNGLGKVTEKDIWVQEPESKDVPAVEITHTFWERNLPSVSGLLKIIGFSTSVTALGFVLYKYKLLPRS
In words: MAO-Glo activity assay with recombinant MAOA (IC50 […] in PEG, […] in PBS); fluorescent SDS-PAGE band of pure protein. In kind it is biochemical.

Turning to `C#CCN(CCCNC(=O)CCCCC[N+]1=C(/C=C/C2=C(Cl)C(=C/C=C3\N(CCCCCC(=O)[O-])c4ccccc4C3(C)C)/CCC2)C(C)(C)c2ccccc21)CCCOc1ccc(Cl)cc1Cl` [NMI], the IC50 came out at 1600 nM.
